system: HCV replicon; assay: HCV replicon replication assay (NPT ELISA) in Huh-7 replicon-containing cells; assay type: cell-based; details: Hepatitis C virus, 72 h; HCV replicon in Huh-7 cells, three days incubation; read-out: EC50
Summary of the method: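 Replication was scored by capture ELISA of neomycin phosphotransferase, whose level tracks replicon replication, after graded compound treatment. The cells were Huh-7 harbouring an HCV-IRES/neo/EMCV-IRES/NS3–NS5B/3′-NTR replicon, plated at 6000-7500 cells/well and dosed 24 h later at 60-70% confluence; interferon alpha was the positive control.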

Question: How did the EC50 turn out when C=CC1CC1(NC(=O)[C@@H]1C[C@@H](Oc2cc(-c3ccccc3)nc3cc(OC)ccc23)CN1C(=O)[C@@H](CC(=O)N1CCC(CCC)CC1)C(C)(C)C)C(=O)NS(=O)(=O)C1CC1 (stereo partly drawn) [Compound 43, (2S,4R)-1-((S)-2-tert-butyl-4-oxo-4-(4-propylpiperidin-1-yl)butanoyl)-N-(1-(cyclopropyl-sulfonyl-carbamoyl)-2-vinylcyclopropyl)-4-(7-methoxy-2-phenylquinolin-4-yloxy)pyrrolidine-2-carboxamide] was run?
Answer: The EC50 was 1 to 10 µM.

Question: For C=C[C@@H]1C[C@]1(NC(=O)[C@@H]1C[C@@H](Oc2cc(-c3ccccn3)nc3c4c(ccc23)CCC4)CN1C(=O)[C@@H](CC(=O)N1CCCCC1)C(C)(C)C)C(=O)NS(=O)(=O)C1CC1 [Compound 242, (2S,4R)-1-((S)-2-tert-butyl-4-oxo-4-(piperidin-1-yl)butanoyl)-N-((2S)-1-(cyclopropyl-sulfonylcarbamoyl)-2-vinylcyclopropyl)-4-(2-(pyridin-2-yl)-8,9-dihydro-7H-cyclopenta[h]quino-lin-4-yloxy)pyrrolidine-2-carboxamide], which EC50 is on record?
Answer: Its EC50 is under 1 µM.

Question: Which EC50 does the source give for C=C[C@@H]1C[C@]1(NC(=O)[C@@H]1C[C@@H](Oc2cc(-c3ccccn3)c3ccc(OC)c(Cl)c3n2)CN1C(=O)[C@@H](CC(=O)N1CCCCC1)C(C)(C)C)C(=O)NS(=O)(=O)C1CC1 [Compound 148, (2S,4R)-1-((S)-2-tert-butyl-4-oxo-4-(piperidin-1-yl)butanoyl)-4-(8-chloro-7-methoxy-4-(pyridin-2-yl)quinolin-2-yloxy)-N-((1R,2S)-1-(cyclopropyl-sulfonylcarbamoyl)-2-vinyl-cyclopropyl)pyr-rolidine-2-carboxamide] here?
Answer: The EC50 was 1 to 10 µM.

Question: C=C[C@@H]1C[C@]1(NC(=O)[C@@H]1C[C@@H](Oc2cc(-c3ccccc3)nc3cc(OC)ccc23)CN1C(=O)[C@@H](CC(=O)N1C[C@@H]2C[C@H]1CN2C(=O)OC(C)(C)C)C(C)(C)C)C(=O)NS(=O)(=O)C1CC1 [Compound 172, (1S,4S)-tert-butyl 5-((S)-3-((2S,4R)-2-((1R,2S)-1-(cyclopropyl-sulfonylcarbamoyl)-2-vinylcyclopropyl-carbamoyl)-4-(7-methoxy-2-phenylquinolin-4-yloxy)pyrrolidine-1-carbonyl)-4,4-dimethylpentanoyl)-2,5-diazabi-cyclo[2.2.1]heptane-2-carboxylate] was tested. Which EC50 did it give?
Answer: Its EC50 is under 1 µM.

Question: How did the EC50 turn out when C=C[C@@H]1C[C@]1(NC(=O)[C@@H]1C[C@@H](Oc2cc(-c3ccccc3)nc3cc(OC)ccc23)CN1C(=O)[C@@H](CC(=O)N1CCCCC1c1cc(-c2ccccc2)[nH]n1)C(C)(C)C)C(=O)NS(=O)(=O)C1CC1 (stereo partly drawn) [Compound 232, (2S,4R)-1-((2S)-2-tert-butyl-4-oxo-4-(2-(5-phenyl-1H-pyrazol-3-yl)piperidin-1-yl)butanoyl)-N-((2S)-1-(cyclopropyl-sulfonylcarbamoyl)-2-vinylcyclopropyl)-4-(7-methoxy-2-phenylquinolin-4-yloxy)pyrrolidine-2-carboxamide] was run?
Answer: Its EC50 is under 1 µM.

Question: C=C[C@@H]1C[C@]1(NC(=O)[C@@H]1C[C@@H](Oc2cc(-c3ccccc3)nc3cc(OC)ccc23)CN1C(=O)[C@@H](CC(=O)N1CCCCC1)C(C)(C)C)C(=O)NS(=O)(=O)C1CCCCC1 [Compound 92, (2S,4R)-1-((S)-2-tert-butyl-4-oxo-4-(piperidin-1-yl)butanoyl)-N-((1R,2S)-1-(cyclo-hexylsulfonyl-carbamoyl)-2-vinyl-cyclopropyl)-4-(7-methoxy-2-phenylquinolin-4-yloxy)pyrrolidine-2-carboxamide] was tested. Which EC50 did it give?
Answer: Its EC50 is under 1 µM.

Question: With C=C[C@@H]1C[C@]1(NC(=O)[C@@H]1C[C@@H](Oc2cc(-c3csc(NC(C)C)n3)nc3cc(OC)ccc23)CN1C(=O)[C@@H](CC(=O)N1CCOCC1)C(C)(C)C)C(=O)NS(=O)(=O)C1CC1 [Compound 100, (2S,4R)-1-((S)-2-tert-butyl-4-morpholino-4-oxobutanoyl)-N-((1R,2S)-1-(cyclopropylsulfonyl-carbamoyl)-2-vinylcyclopropyl)-4-(2-(2-(isopropyl-amino)thiazol-4-yl)-7-methoxyquinolin-4-yloxy)pyrrolidine-2-carboxamide] as the compound, how does the EC50 read?
Answer: The EC50 was under 1 µM.

Question: Which EC50 does the source give for COc1ccc2c(O[C@@H]3C[C@@H](C(=O)N[C@H](C(=O)NS(=O)(=O)C4CC4)c4ccccc4)N(C(=O)[C@@H](CC(=O)N4CCCCC4)C(C)(C)C)C3)cc(-c3ccccc3)nc2c1 [Compound 112, (2S,4R)-1-((S)-2-tert-butyl-4-oxo-4-(piperidin-1-yl)butanoyl)-N-((S)-2-(cyclopropane-sulfonamido)-2-oxo-1-phenylethyl)-4-(7-methoxy-2-phenylquinolin-4-yloxy)pyrrolidine-2-carboxamide] here?
Answer: Its EC50 is 1 to 10 µM.

Question: How did the EC50 turn out when C=C[C@@H]1C[C@]1(NC(=O)[C@@H]1C[C@@H](Oc2cc(-c3ccccc3)nc3cc(OC)ccc23)CN1C(=O)[C@@H](CC(=O)N1CCCCC1)C1CC1)C(=O)NS(=O)(=O)C1CC1 [Compound 121, (2S,4R)-1-((S)-2-cyclopropyl-4-oxo-4-(piperidin-1-yl)butanoyl)-N-((1R,2S)-1-(cyclopropylsulfonyl-carbamoyl)-2-vinylcyclopropyl)-4-(7-methoxy-2-phenylquinolin-4-yloxy)pyrrolidine-2-carboxamide] was run?
Answer: Its EC50 is under 1 µM.

Question: With C=C[C@@H]1C[C@]1(NC(=O)[C@@H]1C[C@@H](Oc2nc(-c3ccccc3)cc3cc(OC)ccc23)CN1C(=O)[C@@H](CC(=O)N1CCCCC1)C(C)(C)C)C(=O)NS(=O)(=O)C1CC1 [Compound 70, (2S,4R)-1-((S)-2-tert-butyl-4-oxo-4-(piperidin-1-yl)butanoyl)-N-((1R,2S)-1-(cyclo-propylsulfonyl-carbamoyl)-2-vinylcyclopropyl)-4-(6-methoxy-3-phenylisoquinolin-1-yloxy)pyrrolidine-2-carboxamide] as the compound, how does the EC50 read?
Answer: The EC50 was under 1 µM.

Question: C=C[C@@H]1C[C@]1(NC(=O)[C@@H]1C[C@@H](Oc2cc(-c3ccccc3)nc3c(OC)cccc23)CN1C(=O)[C@@H](CC(=O)N1CCCCC1)C(C)(C)C)C(=O)NS(=O)(=O)C1CC1 [Compound 231, (2S,4R)-1-((S)-2-tert-butyl-4-oxo-4-(piperidin-1-yl)butanoyl)-N-((2S)-1-(cyclopropyl-sulfonylcarbamoyl)-2-vinylcyclopropyl)-4-(8-methoxy-2-phenylquinolin-4-yloxy)pyrrolidine-2-carboxamide] was tested. Which EC50 did it give?
Answer: The EC50 was under 1 µM.

Question: For C=C[C@@H]1C[C@]1(NC(=O)[C@@H]1C[C@@H](Oc2cc(-c3ccccc3)nc3cc(OC)ccc23)CN1C(=O)[C@@H](CC(=O)N1CC2CC3CC(C2)CC1C3)C(C)(C)C)C(=O)NS(=O)(=O)C1CC1 [Compound 81], which EC50 is on record?
Answer: Its EC50 is under 1 µM.

Question: For C=C[C@@H]1C[C@]1(NC(=O)[C@@H]1C[C@@H](Oc2cc(-c3ccccc3)nc3cc(OC)ccc23)CN1C(=O)[C@@H](CC(=O)N1CCC(c2ccccc2)CC1)C(C)(C)C)C(=O)NS(=O)(=O)C1CC1 [Compound 182, (2S,4R)-1-((S)-2-tert-butyl-4-oxo-4-(4-phenylpiperidin-1-yl)butanoyl)-N-((1R,2S)-1-(cyclopropylsulfonyl-carbamoyl)-2-vinylcyclopropyl)-4-(7-methoxy-2-phenylquinolin-4-yloxy)pyrrolidine-2-carboxamide], which EC50 is on record?
Answer: The EC50 was under 1 µM.

Question: For C=C[C@@H]1C[C@]1(NC(=O)[C@@H]1C[C@@H](Oc2cc(-c3ccccn3)nc3cc(OC)ccc23)CN1C(=O)[C@@H](CC(=O)N1CCCCC1)C(C)(C)C)C(=O)NS(=O)(=O)C1CC1 [Compound 165, (2S,4R)-1-((S)-2-tert-butyl-4-oxo-4-(piperidin-1-yl)butanoyl)-N-((1R,2S)-1-(cyclo-propylsulfonyl-carbamoyl)-2-vinyl-cyclopropyl)-4-(7-methoxy-2-(pyridin-2-yl)quinolin-4-yloxy)pyrrolidine-2-carboxamide], which EC50 is on record?
Answer: The EC50 was under 1 µM.

Question: How did the EC50 turn out when CCC[C@H](NC(=O)[C@@H]1C[C@@H](Oc2cc(-c3ccccc3)nc3cc(OC)ccc23)CN1C(=O)[C@@H](CC(=O)N1CCCCC1)C(C)(C)C)C(=O)NS(=O)(=O)C1CC1 [Compound 113, (2S,4R)-1-((S)-2-tert-butyl-4-oxo-4-(piperidin-1-yl)butanoyl)-N-((S)-1-(cyclopropanesulfon-amido)-1-oxopentan-2-yl)-4-(7-methoxy-2-phenylquinolin-4-yloxy)pyrrolidine-2-carboxamide] was run?
Answer: The EC50 was 1 to 10 µM.

Question: How did the EC50 turn out when C=CC1C[C@]1(NC(=O)[C@@H]1C[C@@H](NC(=O)c2cc(-c3ccccc3)nc3ccccc23)CN1C(=O)[C@@H](CC(=O)N1CCC(C(F)(F)F)CC1)C(C)(C)C)C(=O)NS(=O)(=O)C1CC1 (stereo partly drawn) [Compound 199, N-((3R,5S)-1-((S)-2-tert-butyl-4-oxo-4-(4-(trifluoromethyl)piper-idin-1-yl)butanoyl)-5-((1R,2S)-1-(cyclo-propylsulfonyl-carbamoyl)-2-vinyl-cyclopropyl-carbamoyl)pyrrolidin-3-yl)-2-phenylquinoline-4-carboxamide] was run?
Answer: Its EC50 is under 1 µM.

Question: With C=CC1C[C@]1(NC(=O)[C@@H]1C[C@@H](Oc2cc(-c3ccccc3)nc3cc(OC)ccc23)CN1C(=O)[C@@H](CC(=O)N1CC(C)CC(C)C1)C(C)(C)C)C(=O)NS(=O)(=O)C1CC1 (stereo partly shown) [Compound 185] as the compound, how does the EC50 read?
Answer: The EC50 was under 1 µM.

Question: With C=C[C@@H]1C[C@]1(NC(=O)[C@@H]1C[C@@H](Oc2cc(-c3ccccn3)nc3c4c(ccc23)CCC4)CN1C(=O)[C@@H](CC(=O)N1CCC(C(F)(F)F)CC1)C(C)(C)C)C(=O)NS(=O)(=O)C1CC1 [Compound 237, (2S,4R)-1-((S)-2-tert-butyl-4-oxo-4-(4-(trifluoro-methyl)piperidin-1-yl)butanoyl)-N-((2S)-1-(cyclopropyl-sulfonylcarbamoyl)-2-vinylcyclopropyl)-4-(2-(pyridin-2-yl)-8,9-dihydro-7H-cyclopenta[h]quino-lin-4-yloxy)pyrrolidine-2-carboxamide] as the compound, how does the EC50 read?
Answer: The EC50 was under 1 µM.

same assay, conditions: Hepatitis C virus, Huh-7

Question: C=CC1CC1(NC(=O)[C@@H]1C[C@@H](Oc2cc(-c3ccccc3)nc3cc(OC)ccc23)CN1C(=O)[C@@H](CC(=O)O)C(C)(C)C)C(=O)OCC (stereo partly drawn) [Compound 11, (3S)-3-((2S,4R)-2-(1-(ethoxycarbonyl)-2-vinylcyclopropylcarbamoyl)-4-(7-methoxy-2-phenylquinolin-4-yloxy)pyrrolidine-1-carbonyl)-4,4-dimethylpentanoic acid] was tested. Which EC50 did it give?
Answer: The EC50 was at most 10 µM.

— patent publication US9133115B2 (ACHILLION PHARMACEUTICALS, INC., priority 2008, dated 2015)
